Consider one substance from patent US20160144021A1, “Vaccine Composition And Method Of Use” (MEDIMMUNE, LLC, priority 2013, published 2016).

Like-named read-outs stand apart in the source and are kept apart here.

One assay concerns RSV sF. The assay is described as follows: Serum anti-F IgG and isotype ELISA, naive Sprague Dawley rats. In kind it is in vivo. The note with it: Day 42. As for the experimental part: (§1) In a subsequent study, the immunogenicity and protection following a prime-boost regimen of RSV-SF was evaluated. 40 naive female Sprague Dawley rats were divided into designated vaccine cohorts of 5-6 animals per cohort. Briefly, test groups were given RSV sF (10 μg or 100 μg per animal) without adjuvant or RSV sF (10 μg or 100 μg per animal) with GLA-SE (2.5 μg in 2% SE). Negative control groups were dosed with placebo (PBS buffer) or adjuvant GLA-SE (2.5 μg/2%) without RSV sF. […] Groups 1-6 were inoculated IM with 500 μL of designated vaccine article on Day 0 and Day 22, while Group 7 was inoculated IN with 200 μL of RSV A2 virus on day 0 only. […] Rats were euthanized at 4 days post challenge on Day 46, the day of peak viral replication determined from Study 1. Lungs (excluding 1 lobe which was formalin-fixed) and noses were homogenized and quantified for viral titers.
(§2) Serological responses to vaccination were evaluated at 6 hours post immunization, D22, and D42 for all animals and at Day 14 for a subset of 3 animals per group. […] Serum obtained 6 hours post-immunization was evaluated for cytokine titers by multiplexed ELISA. Serum from Days 14, 22, and 42 were measured for total anti-F IgG ELISA endpoint dilution titers. Day 42 serum was evaluated for the specific contribution of IgG1, IgG2a, and IgG2b anti-F responses by ELISA endpoint dilution titers. […]
On the technique in general: An ELISA detects its analyte on a solid surface through an enzyme-linked reagent.

Assay [1] relates to RSV A2. The assay can be described thus: RSV A2-GFP microneutralization of sera, naive Sprague Dawley rats. As to conditions: Day 22, 22 days post Dose 1; RSV sF 10 and 100 μg groups. In kind it is in vivo. On the procedure:
as §1, §2

Assay [2] relates to RSV A2. The assay can be described thus: RSV A2-GFP neutralizing Ab titers of sera, cynomolgus monkeys. In kind it is in vivo. An excerpt:
At Day 169, 5 months post vaccination, the booster vaccination was given.

Regarding “RSV sF: RSV soluble F protein, amino acids 1-524 of the RSV A2 F sequence lacking the transmembrane domain, given without adjuvant”, in the assay on RSV sF, the F-specific isotype balance result is “higher IgG1 titers than IgG2b titers”. In addition, the “serum neutralizing titers (log2 GMT IC50)” value with RSV A2 [1] is listed as “not significantly different from placebo”. Moreover, in the assay on RSV A2 [2] (Day 42), the “animals with 4-fold boost in neutralizing titers from Day −7 levels” value is given as 1/4 and the “geometric mean RSV neutralizing Ab titer” value amounted to 3.52±1.14 log 2. Besides, in the assay on RSV A2 [2] (Day 169), the “RSV neutralizing Ab titers” value came out at 2.97 log 2. In addition, in the assay with RSV A2 [2] (Day 183, 14 days following the third immunization), the “geomean neutralizing Ab titers” value is reported as 4.46±1.79 log 2. For the same substance, the “animals with ≧4-fold rise in IgG titers at Day 183 compared to Day 169” value with RSV sF protein (4 animals per group) is 2 of 4. For the same substance, the “geomean anti-F IgG titer” value with RSV sF protein (Day 42, 100 μg RSV sF at days 0 and 28) worked out at 10.45±2.68 log 2. Further, in the assay on RSV sF protein (Day 183, 14 days post booster at Day 169), the “geomean anti-F IgG titer” value turned out to be 12.55±2.16 log 2.
